In patent US10106510B2, “Substituted isoxazoles for treating cancer” (EPIZYME, INC., priority 2014, dated 2018):

Legend:
SMYD3 [1] = target: T1, SMYD3 (Homo sapiens (Human), UniProt Q9H7B4); test: SMYD3 cell assay (Trimethyl-MEKK2 In-Cell Western in 293T/17 cells); type: cell-based; settings: 293T/17 cells transfected with MEKK2-flag and SMYD3, trimethyl-MEKK2 In-Cell Western, 24 hours, top concentration 40 μM; average of n = 1 to n = 50
Excerpt: Trimethyl-MEKK2-In-Cell Western Assay
293T/17 adherent cells were purchased from ATCC (American Type Culture Collection), Manassas, Va., USA. MEM/Glutamax medium, Optimem Reduced Serum medium, penicillin-streptomycin, 0.05% trypsin and 1×D-PBS were purchased from Life Technologies, Grand Island, N.Y., USA. PBS-10× was purchased from Ambion, Life Technologies, Grand Island, N.Y., USA. PBS with Tween 20 (PBST (10×)) was purchased from KPL, Gaithersburg, Md., USA. Tet System FBS-approved FBS US Source was purchased from Clontech, Mountain View, Calif., USA. Odyssey blocking buffer, 800 CW goat anti-rabbit IgG (H+L) antibody, 680 CW Goat anti-mouse IgG (H+L) and Licor Odyssey infrared scanner were purchased from Licor Biosciences, Lincoln, Nebr., USA. Tri-methyl-Lysine [A260]-MEKK2 antibody, MEKK2 and SMYD3 plasmids were made at Epizyme. Anti-flag monoclonal mouse antibody was purchased from Sigma, St. Louis, Mo., USA. Methanol was purchased from VWR, Franklin, Mass., USA. 10%) Tween 20 was purchased from KPL, Inc., Gaithersburg, Md., USA. Fugene was purchased from Promega, Madison, Wis., USA. The Biotek ELx405 was purchased from BioTek, Winooski, Vt., USA. The multidrop combi was purchased from Thermo Scientific, Waltham, Mass., USA.
293T/17 adherent cells were maintained in growth medium (MEM/Glutamax medium supplemented with 10% v/v Tet System FBS and cultured at 37° C. under 5% CO2.
Cell Treatment, In Cell Western (ICW) for Detection of Trimethyl-Lysine-MEKK2 and MEKK2
293T/17 cells were seeded in assay medium at a concentration of 33,333 cells per cm^2 in 30 mL medium per T150 flask and incubated at 37° C. under 5% CO2. Plasmids were prepared for delivery to cells by first mixing 1350 μL Opti-MEM with Fugene (81 μL) in a sterile Eppendorf and incubated for five minutes at room temperature (RT). MEKK2-flag (13.6 ug/T150) MEKK2 p3XFlag-CMV-14 with C-3XFlag and SMYD3 (0.151 ug/T150) SMYD3 p3XFlag-CMV-14 without C-3XFlag plasmids were aliquotted to a 1.7 mL sterile microfuge tube. The gene ID for MEKK2 and SMYD3 is NM_006609.3 and Q9H7B4, respectively. Entire volume of Opti-MEM/Fugene mixture was then added to a microfuge tube containing DNA plasmid, mixed and then incubated××15 minutes at RT. The medium on the 293T/17 cells was refreshed, and the DNA/Fugene complex is added aseptically to each flask, rocked gently, and incubated at 37 C for 5 hours. Medium was then removed, and cells were washed once with PBS in the flask. Trypsin 0.05% (3 mL) was added and cells incubated for three minutes. Room temperature MEM+10% Tet system FBS was added and cells were mixed gently, and counted using the Vi-cell. Cells were seeded at 100,000 cells/mL in 50 μL MEM/10% Tet FBS/Pen/Strep to a 384 well black/clear poly-D-lysine coated plate containing test agent diluted in DMSO. The final top concentration of test compound was 40 μM. […] Plates were incubated ×30 minutes at RT in low-airflow area, followed by incubation at 37° C. under 5% CO2 for 24 hours. Medium was aspirated from all wells of assay plates prior to fixation and permeabilization with ice cold (−20° C.) methanol (90 μL/well) for ten minutes. Plates were rinsed with PBS three times on BioTek ELx405. PBS was removed with a final aspiration, and Odyssey blocking buffer (50 μL/well) was added to each well and incubated for one hour at RT. Primary antibody solution was prepared (anti-trimethyl-MEKK2 at 1:600 dilution plus mouse anti-flag antibody at 1:10,000 dilution in diluent (Odyssey Blocking buffer+0.1% Tween 20)) and 20 μL per well was dispensed using the Multidrop Combi. Assay plates were then sealed with foil, and incubated overnight at 4° C. Plates were washed five times with PBS-Tween (IX) on Biotek ELx405 and blotted on paper towel to remove excess reagent. […]

SMYD3 [2] = target: T1, SMYD3; test: SMYD3 biochemical assay (SMYD3 enzyme assay on MEKK2 protein substrate, scintillation proximity assay); settings: 3H-SAM, SPA, IC50 values are an average of n = 1 to n = 50, read-out: SMYD3 Biochem IC50
Excerpt: S-adenosylmethionine (SAM), S-adenosylhomocysteine (SAH), Tris, Tween20, dimethylsulfoxide (DMSO), bovine skin gelatin (BSG), and Tris(2-carboxyethyl)phosphine hydrochloride solution (TCEP) were purchased from Sigma-Aldrich at the highest level of purity possible. ^3H-SAM was purchase from American Radiolabeled Chemicals with a specific activity of 80 Ci/mmol. 384-well opaque white OptiPlates and SPA beads (Perkin Elmer, catalog # RPNQ0013) were purchased from PerkinElmer.
N-terminally GST-tagged MEKK2 (MAP3K2) protein corresponding to reference sequence AAF63496.3 was purchased from Life Technologies (catalog # PV4010). […] Protein identity was confirmed by MS/MS analysis after proteolytic digestion. The protein sequence used was:
Full-length human SMYD3 isoform 1 (BAB86333) was inserted into a modified pET21b plasmid containing a His6 tag and TEV and SUMO cleavage sites. Because two common variants of SMYD3 exist in the population, site directed mutagenesis was subsequently performed to change amino acid 13 from an asparagine to a lysine, resulting in plasmid pEPZ533.
E. coli (BL21 codonplus RIL strain, Stratagene) were transformed with plasmid pEPZ553 by mixing competent cells and plasmid DNA and incubating on ice for 30minutes followed by heat shock at 42° C. for 1 minute and cooling on ice for 2 minutes. Transformed cells were grown and selected on LB agar with 100 μg/mL ampicillin and 17 μg/mL chloramphenicol at 37° C. overnight. A single clone was used to inoculate 200 mL of LB medium with 100 μg/mL ampicillin and 17 μg/mL chloramphenicol and incubated at 37° C. on an orbital shaker at 180 rpm. Once in log growth, the culture was diluted 1:100 into 2 L of LB medium and grown until OD600 was about 0.3 after which the culture was incubated at 15° C. and 160 rpm. Once OD600 reached about 0.4, IPTG was added to a final concentration of 0.1 mM and the cells were grown overnight at 15° C. and 160 rpm. Cells were harvested by centrifugation at 8000 rpm, for 4 minutes at 4° C. and stored at −80° C. for purification.
The column was washed with Buffer B (Buffer A plus 20 mM imidazole) and His-tagged SMYD3 was eluted with Buffer C (Buffer A plus 300 mM imidazole). The His tag, TEV and SUMO cleavage sites were removed generating native SMYD3 by addition of ULP1 protein at a ratio of 1:200 (ULP1:SMYD3). Imidazole was removed by dialysis overnight in Buffer A. The dialyzed solution was applied to a second Nickel column and the native SMYD3 protein was collected from the column flow-through. The flow-through was dialyzed in Buffer D (25 mM Tris, 5% glycerol, 5 mM β-mercaptoethanol, 50 mM NaCl, pH7.8) and ULP1 was removed using a Q sepharose fast flow column.
General Procedure for SMYD3 Enzyme Assays on MEKK2 Protein Substrate
The assays were all performed in a buffer consisting of 25 mM Tris-Cl pH 8.0, 1 mM TCEP, 0.005% BSG, and 0.005% Tween 20, prepared on the day of use. Compounds in 100% DMSO (1 ul) were spotted into a 384-well white opaque OptiPlate using a Bravo automated liquid handling platform outfitted with a 384-channel head (Agilent Technologies). DMSO (1 ul) was added to Columns 11, 12, 23, 24, rows A-H for the maximum signal control and 1 ul of SAH, a known product and inhibitor of SMYD3, was added to columns 11, 12, 23, 24, rows I-P for the minimum signal control. A cocktail (40 ul) containing the SMYD3 enzyme was added by Multidrop Combi (Thermo-Fisher). The compounds were allowed to incubate with SMYD3 for 30 min at room temperature, then a cocktail (10 ul) containing SAM and MEKK2 was added to initiate the reaction (final volume=51 ul).

T1 sequence (Q9H7B4 whole entry): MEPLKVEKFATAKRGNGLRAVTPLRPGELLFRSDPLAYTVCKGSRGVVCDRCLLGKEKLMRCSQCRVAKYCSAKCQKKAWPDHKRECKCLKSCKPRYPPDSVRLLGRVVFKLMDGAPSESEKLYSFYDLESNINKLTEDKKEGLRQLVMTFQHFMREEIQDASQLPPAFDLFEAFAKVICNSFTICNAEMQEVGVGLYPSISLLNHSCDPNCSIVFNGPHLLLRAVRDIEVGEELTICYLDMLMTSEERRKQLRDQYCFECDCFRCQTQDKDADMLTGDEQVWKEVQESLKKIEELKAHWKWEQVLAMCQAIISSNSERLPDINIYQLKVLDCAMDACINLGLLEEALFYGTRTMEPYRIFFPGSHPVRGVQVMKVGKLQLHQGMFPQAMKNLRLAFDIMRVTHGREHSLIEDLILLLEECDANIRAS

Row | SMILES | IC50 (SMYD3 [1]) [nM] | IC50 (SMYD3 [2]) [nM]
1 | CCc1cc(C(=O)N[C@H]2CC[C@H](NC(=O)C[C@@H](C)N)C[C@H]2CC)no1 (mixture of isomers) [Cpd. No. 6, Mixture of N-((1S,2R,4S)-4-((R)-3-aminobutanamido)-2-ethylcyclohexyl)-5-ethylisoxazole-3-carboxamide and N-((1R,2S,4R)-4-((R)-3-aminobutanamido)-2-ethylcyclohexyl)-5-ethyl-isoxazole-3-carboxamide; (1S,2R,4S) isomer is depicted] | 964 | 97.3
2 | C[C@@H](N)CC(=O)N[C@H]1CC[C@H](NC(=O)c2cc(C3CC3)on2)[C@H](Cc2ccccc2)C1 (mixture of isomers) [Cpd. No. 39, Mixture of N-((1S,2R,4S)-4-((R)-3-aminobutanamido)-2-benzylcyclohexyl)-5-cyclopropylisoxazole-3-carboxamide and N-((1R,2S,4R)-4-((R)-3-aminobutanamido)-2-benzylcyclohexyl)-5-cyclopropylisoxazole-3-carboxamide; (1S,2R,4S) isomer is depicted.] | 255 | 28.6
3 | C[C@@H](N)CC(=O)N[C@H]1CC[C@H](NC(=O)c2cc(C3CC3)on2)CC1 [compound 5, N-((1R,4r)-4-((R)-3-aminobutanamido)cyclohexyl)-5-cyclopropylisoxazole-3-carboxamide] | 10100 | 400
4 | O=C(CCN1CCCC1)N[C@H]1CC[C@H](NC(=O)c2cc(C3CC3)on2)CC1 [compound 11, 5-cyclopropyl-N-((1r,4r)-4-(3-(pyrrolidin-1-yl)propanamido)cyclohexyl)isoxazole-3-carboxamide] | 1970 | 188
5 | N[C@H]1CC[C@H](C(=O)N[C@H]2CC[C@H](NC(=O)c3cc(C4CC4)on3)CC2)C1 [compound 32, N-((1S,4r)-4-((1S,3S)-3-aminocyclopentane-1-carboxamido)cyclohexyl)-5-cyclopropylisoxazole-3-carboxamide] | 5150 | 562
6 | NCCCN(C(=O)CCN)[C@H]1CC[C@H](NC(=O)c2cc(C3CC3)on2)CC1 [compound 33, N-((1r,4r)-4-(3-amino-N-(3-aminopropyl)propanamido)cyclohexyl)-5-cyclopropylisoxazole-3-carboxamide] | > 40000 | 428
